Source: patent US9040523B2, “Antifungal 5,6-dihydro-4H-pyrrolo[1,2-α][1,4]-benzodiazepines and 6H-pyrrolo[1,2-α][1,4]benzodiazepines substituted with benzene derivatives” (JANSSEN PHARMACEUTICA NV, priority 2010, dated 2015)

Experiments:
Cytochrome P450 2C9 = Cytochrome P450 2C9 (Homo sapiens, UniProt P11712); assay: Human liver microsomal cytochrome P450 cocktail inhibition assay, Protocol C; conditions: 2C9 Tolbut pIC50, human liver microsomes 0.2 mg/ml; probe tolbutamide 100 microM
Experimental: (§1) Probe substrates and final assay concentrations with the appropriate internal standard are outlined in Table 6a.
(§2) Assays were performed in 0.1 M phosphate buffer (pH 7.4), containing 0.2 mg/ml human liver microsomes (BD Gentest) and a probe substrate mix consisting of: phenacetin, tolbutamide, S-mephenyloin, dextromethorphan, amodiaquine and midazolam (Table 6a) and a range of test compound concentrations (0 to 30 micromolar) in a total volume of 100 microliters. After a 10 min pre-incubation at 37° C., the reaction was started with addition of NADPH at a final concentration of 1.0 mM. […] The samples are centrifuged for 10 min at 4° C. at 4000 rpm and 60 microliters supernatant is diluted with 180 microliters water. Each sample is injected onto a UPLC/MS system for the simultaneous measurement of the probe substrate metabolites and their associated deuterated internal standards. Percentage inhibition is calculated according to: %-inhibition=(1−Ri/R)*100, whereby Ri and R are the metabolite to internal standard peak area ratios in the presence and absence of inhibitor respectively.
(§3) Percentage inhibition data are plotted against the Log transformed test compound concentration and after curve fitting the IC50-value is determined.

Cytochrome P450 2C19 = Cytochrome P450 2C19 (Homo sapiens, UniProt P33261); assay: as above; conditions: 2C19_S-Meph pIC50, human liver microsomes 0.2 mg/ml; probe S-mephenytoin 30 microM
Cytochrome P450 2C19, sequence (P33261 whole entry): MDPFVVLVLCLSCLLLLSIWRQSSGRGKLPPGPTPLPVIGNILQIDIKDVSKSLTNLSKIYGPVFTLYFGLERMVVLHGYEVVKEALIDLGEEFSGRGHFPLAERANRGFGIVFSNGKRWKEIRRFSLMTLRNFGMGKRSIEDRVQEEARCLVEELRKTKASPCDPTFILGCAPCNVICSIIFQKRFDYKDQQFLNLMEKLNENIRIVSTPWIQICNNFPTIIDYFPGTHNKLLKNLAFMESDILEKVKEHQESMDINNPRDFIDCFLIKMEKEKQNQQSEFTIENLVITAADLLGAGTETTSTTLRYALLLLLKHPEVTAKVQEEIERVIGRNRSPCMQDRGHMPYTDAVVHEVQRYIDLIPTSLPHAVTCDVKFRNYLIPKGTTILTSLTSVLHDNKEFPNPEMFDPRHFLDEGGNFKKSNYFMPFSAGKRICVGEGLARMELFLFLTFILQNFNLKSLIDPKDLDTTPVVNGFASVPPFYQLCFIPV
Experimental: as §1, §2, §3

Cytochrome P450 2D6 = Cytochrome P450 2D6 (Homo sapiens, UniProt P10635); assay: as above; conditions: 2D6_Dextro pIC50, human liver microsomes 0.2 mg/ml; probe dextromethorphan 3 microM
Cytochrome P450 2D6, sequence (P10635 whole entry): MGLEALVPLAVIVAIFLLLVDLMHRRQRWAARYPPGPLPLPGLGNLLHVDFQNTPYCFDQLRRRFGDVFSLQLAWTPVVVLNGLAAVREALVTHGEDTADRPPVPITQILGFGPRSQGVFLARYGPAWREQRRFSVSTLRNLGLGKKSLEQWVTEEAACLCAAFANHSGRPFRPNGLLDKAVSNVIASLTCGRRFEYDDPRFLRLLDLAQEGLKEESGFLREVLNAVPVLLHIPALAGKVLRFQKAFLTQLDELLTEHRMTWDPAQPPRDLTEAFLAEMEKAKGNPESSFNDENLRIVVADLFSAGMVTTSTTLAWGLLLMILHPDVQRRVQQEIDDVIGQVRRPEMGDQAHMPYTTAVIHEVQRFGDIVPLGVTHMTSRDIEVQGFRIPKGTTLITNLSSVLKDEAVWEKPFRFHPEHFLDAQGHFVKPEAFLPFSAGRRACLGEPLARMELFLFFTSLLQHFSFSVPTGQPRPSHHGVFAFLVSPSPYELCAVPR
Experimental: as §1, §2, §3

Cytochrome P450 1A2 = biological target: T1, Cytochrome P450 1A2 (Homo sapiens, UniProt P05177); assay: as above
T1 sequence (P05177 1-516): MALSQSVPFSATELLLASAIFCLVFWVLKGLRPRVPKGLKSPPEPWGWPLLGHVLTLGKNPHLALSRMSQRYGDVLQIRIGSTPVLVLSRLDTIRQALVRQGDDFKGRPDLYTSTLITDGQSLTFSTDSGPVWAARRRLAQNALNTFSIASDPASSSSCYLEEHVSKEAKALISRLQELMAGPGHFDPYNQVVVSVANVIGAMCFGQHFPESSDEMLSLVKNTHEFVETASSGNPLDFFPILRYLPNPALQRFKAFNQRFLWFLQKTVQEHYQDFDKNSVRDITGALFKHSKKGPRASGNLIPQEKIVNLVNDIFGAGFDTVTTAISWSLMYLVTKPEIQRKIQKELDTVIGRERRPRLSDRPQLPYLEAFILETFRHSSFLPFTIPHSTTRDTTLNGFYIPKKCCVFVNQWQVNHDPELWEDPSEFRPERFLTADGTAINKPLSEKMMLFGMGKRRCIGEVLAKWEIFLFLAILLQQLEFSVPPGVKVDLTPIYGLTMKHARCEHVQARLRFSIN
Experimental: as §1, §2, §3

[1] = test system: Candida parapsilosis B66126; assay: Antifungal activity in vitro (resazurin susceptibility screen), Inf. D; assay type: cell-based; conditions: Lodderomyces parapsilosis; Candida parapsilosis B66126; 37 °C, 24 hours, resa time 4 hours; read-out: Inf. D pIC50 (converted)
Experimental: (§4) The standard susceptibility screen was performed in 96-well plates (U-bottom, Greiner Bio-One). […] These serial dilutions (10 n1) were then spotted onto test-plates that could be stored in the dark at 4° C. for a maximum period of 2 weeks. […] A standard inoculum of 200 μl containing 10^3 colony-forming unit (cfu) was then added to each well. A positive control (100% growth=fungal culture without antifungal) and a negative control (0% growth ═RPMI-MOPS medium) were included on each plate.

CYP1A2 = biological target: T2, CYP1A2 (Homo sapiens, UniProt P05177); assay: Cytochrome P450 inhibition, Protocol A, cDNA expressed proteins, fluorogenic substrate; assay type: in vitro ADME
T2 sequence (P05177 1-516): T1 sequence (P05177 1-516)
Experimental: (§5) All fluorogenic based assays were performed in Black Costar 96-well plates according to Crespi et al 1997 with minor modifications (Crespi C L, Miller V P & Penman B W (1997). Microtiter plate assays for inhibition of human, drug-metabolizing cytochromes P450. Anal. Biochem. Vol 248, 1898-1900). Assay conditions are outlined in Table 5a. For cytochrome P450 3A4, three different fluorogenic substrates were used. Each reaction mixture consisted of the appropriate concentration of enzyme, NADPH-generating system (“NADPH” means β-nicotinamide adenine dinucleotide phosphate, reduced), substrate in sodium/potassium buffer (pH 7.4). For each cytochrome P450 batch Michealis-Menten kinetics were determined using 11 concentrations.
(§6) Thereafter, further dilutions were made in acetonitrile. […] The compounds were serially diluted to give final concentrations ranging from 1 nM to 10 μM. The reaction mixtures, whereby 1 μL of buffer was replaced by compound solution, were pre-warmed for 5 min at 37° C. and the reaction was initiated by the addition of β-nicotinamide adenine dinucleotide phosphate (NADP+). Reactions were terminated by addition of stopping reagent and the fluorescence was measured using a Fluoroscan (Labsystems, Brussel, Belgium).
(§7) In Table 5a, the following abbreviations were used: 3-cyano-7-ethocycoumarin (CEC), 7-methoxy-4-trifluoromethylcoumarin (MFC), 3-[2-(N,N-diethyl-N-methylamino)ethyl]-7-methoxy-4-methylcoumarin (AMMC), 7-benzyloxy-trifluoromethyl coumarin (BFC), 7-benzyloxyquinoline (BQ) and dibenzyl fluorescein (DBF).

CYP2C9 = CYP2C9 (Homo sapiens, UniProt P11712); assay: as above; assay type: in vitro ADME
CYP2C9, sequence (P11712 whole entry): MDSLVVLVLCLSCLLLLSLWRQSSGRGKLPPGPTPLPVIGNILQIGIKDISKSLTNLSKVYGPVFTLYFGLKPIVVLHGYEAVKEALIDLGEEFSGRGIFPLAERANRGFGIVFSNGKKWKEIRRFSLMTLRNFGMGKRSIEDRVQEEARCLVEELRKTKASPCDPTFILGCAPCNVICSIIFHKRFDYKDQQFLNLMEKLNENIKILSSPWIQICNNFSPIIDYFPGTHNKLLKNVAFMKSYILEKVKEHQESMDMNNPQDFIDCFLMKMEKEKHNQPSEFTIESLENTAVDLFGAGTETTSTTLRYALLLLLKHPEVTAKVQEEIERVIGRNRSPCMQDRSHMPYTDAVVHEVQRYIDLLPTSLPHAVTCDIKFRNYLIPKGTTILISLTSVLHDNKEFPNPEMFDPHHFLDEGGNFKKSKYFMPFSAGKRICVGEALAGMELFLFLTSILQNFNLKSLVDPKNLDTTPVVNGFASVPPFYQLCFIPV
Experimental: as §5, §6, §7

CYP2D6 = CYP2D6 (Homo sapiens, UniProt P10635); assay: as above; assay type: in vitro ADME
CYP2D6, sequence (P10635 whole entry): as the sequence (P10635 whole entry) above
Experimental: as §5, §6, §7

[2] = test system: Trichophyton mentagrophytes B70554; assay: Antifungal activity in vitro (resazurin susceptibility screen), Inf. G; assay type: cell-based; conditions: Trichophyton mentagrophytes, B70554, Trichophyton mentagrophytes B70554; 27 °C, 7 days, resa time 24 hours; read-out: Inf. G pIC50 (converted)
Experimental: as §4

Microsporum canis B68128 = assay: Antifungal activity in vitro (resazurin susceptibility screen), Inf. B; assay type: cell-based; conditions: Microsporum canis, B68128, Microsporum canis B68128; 27 °C, 9 days, resa time 24 hours; read-out: Inf. B pIC50 (converted)
Experimental: as §4

[3] = test system: Cryptococcus neoformans B66663; assay: Antifungal activity in vitro (resazurin susceptibility screen), Inf. F; assay type: cell-based; conditions: Cryptococcus neoformans, B66663, Cryptococcus neoformans B66663; 37 °C, 24 hours, resa time 4 hours; read-out: Inf. F pIC50 (converted)
Experimental: (§8) The standard susceptibility screen was performed in 96-well plates (U-bottom, Greiner Bio-One). […] These serial dilutions (10 n1) were then spotted onto test-plates that could be stored in the dark at 4° C. for a maximum period of 2 weeks. […] The different fungal species/isolates (Table 3a) were cryopreserved and 1/1000 diluted in medium just prior to use. A standard inoculum of 200 μl containing 10^3 colony-forming unit (cfu) was then added to each well. A positive control (100% growth=fungal culture without antifungal) and a negative control (0% growth ═RPMI-MOPS medium) were included on each plate. […] [table]

CYP3A4 = CYP3A4 (Homo sapiens, UniProt P08684); assay: Cytochrome P450 inhibition, Protocol A, cDNA expressed proteins, fluorogenic substrates; assay type: in vitro ADME
CYP3A4, sequence (P08684 whole entry): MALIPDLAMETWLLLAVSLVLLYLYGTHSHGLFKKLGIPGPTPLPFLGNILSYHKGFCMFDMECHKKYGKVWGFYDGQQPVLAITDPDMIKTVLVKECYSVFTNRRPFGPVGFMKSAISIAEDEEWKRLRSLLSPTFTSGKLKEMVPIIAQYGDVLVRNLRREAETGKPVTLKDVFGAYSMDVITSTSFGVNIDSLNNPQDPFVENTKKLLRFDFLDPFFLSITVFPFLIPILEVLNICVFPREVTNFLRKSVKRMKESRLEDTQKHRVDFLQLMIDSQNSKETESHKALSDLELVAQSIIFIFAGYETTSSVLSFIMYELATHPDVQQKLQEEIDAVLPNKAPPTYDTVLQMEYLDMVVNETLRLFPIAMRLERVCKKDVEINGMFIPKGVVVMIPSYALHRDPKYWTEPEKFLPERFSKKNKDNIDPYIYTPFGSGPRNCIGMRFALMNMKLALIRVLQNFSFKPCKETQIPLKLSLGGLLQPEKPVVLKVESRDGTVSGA
Experimental: as §5, §6, §7

[4] = test system: Sporothrix schenkii B62482; assay: Antifungal activity in vitro (resazurin susceptibility screen), Inf. A; assay type: cell-based; conditions: Sporothrix, B62482, Sporothrix schenkii B62482; 27 °C, 4 days, resa time 24 hours; highest in-test concentration 64 μM; read-out: Inf. A pIC50 (converted)
Experimental: as §8

[5] = Liver metabolic stability assay, hLM; assay type: in vitro ADME, human
Experimental: (§9) Liver preparations (microsomal fractions) were obtained from BD Gentest (San Jose, Calif., US). Metabolic stability was assessed using the following assay conditions. […] The mixture was pre-incubated at 37° C. for 5 min and the enzymatic reaction was started by addition of 5 μM test compound. After 0 (control) and 15 minutes (min), the reactions were terminated by addition of […] (500 μl). The precipitated material was removed by centrifugation at 1200 g for 10 min. The supernatant was analysed by LC-MS/MS on a ThermoFinnigan LCQ Deca XP ion-trap mass spectrometer equipped with an atmospheric pressure chemical ionisation source. Calculation of %-compound remaining was as described by Kantharaj et al. 2003 ((Kantharaj E., Tuytelaars A, Proost P E A, Ongel Z, van […] (2003). Simultaneous measurement of drug metabolic stability and identification of metabolites using ion-trap mass spectrometry.

[6] = Liver metabolic stability assay, gpLM; assay type: in vitro ADME, guinea pig
Experimental: as §9

[7] = test system: Aspergillus fumigatus B42928; assay: Antifungal activity in vitro (resazurin susceptibility screen), Inf. E; assay type: cell-based; conditions: Aspergillus fumigatus B42928; 27 °C, 48 hours, resa time 17 hours; read-out: Inf. E pIC50 (converted)
Experimental: as §8

[8] = test system: Trichophyton rubrum B68183; assay: Antifungal activity in vitro (resazurin susceptibility screen), Inf. C; assay type: cell-based; conditions: Trichophyton rubrum B68183; 27 °C, 7 days, resa time 24 hours; read-out: Inf. C pIC50 (converted)
Experimental: as §8

[9] = % inhibition at 10 μM, substrate CEC, cDNA expressed protein
[10] = % inhibition at 10 μM, substrate MFC, cDNA expressed protein
[11] = % inhibition at 10 μM, substrate AMMC, cDNA expressed protein
[12] = % inhibition at 10 μM, substrate BFC, cDNA expressed protein
[13] = % inhibition at 10 μM, substrate BQ, cDNA expressed protein
[14] = % inhibition at 10 μM, substrate DBF, cDNA expressed protein
[15] = human liver microsomes, 1 mg protein/ml, 5 μM test compound, 15 min, 37 °C

Cytochrome P450 2C9, sequence (P11712 whole entry): as the sequence (P11712 whole entry) above

SMILES | IC50 (Cytochrome P450 2C9) | IC50 (Cytochrome P450 2C19) | IC50 (Cytochrome P450 2D6) | IC50 (Cytochrome P450 1A2) | IC50 [1] | IC50 [2] | IC50 (Microsporum canis B68128) | IC50 [3] | IC50 [4] | IC50 [7] | IC50 [8] | hCYP1A2_CEC_Pct_Inh (CYP1A2; [9]) | hCYP2C9_MFC_Pct_Inh (CYP2C9; [10]) | hCYP2D6_AMMC_Pct_Inh (CYP2D6; [11]) | hCYP3A4_BFC_Pct_Inh (CYP3A4; [12]) | hCYP3A4_BQ_Pct_Inh (CYP3A4; [13]) | hCYP3A4_DBF_Pct_Inh (CYP3A4; [14]) | %-compound metabolised_Met_hLM [5, 15] | further results
CCc1cccc(C2NCc3c(Cl)cccc3-n3cccc32)c1 (centres unmarked) | 6.31 µM | 1.26 µM | 2 µM | > 10 µM |  |  |  |  |  |  |  |  |  |  |  |  |  |  | 
CC(=O)c1cc(C2NCc3c(Cl)cc(Cl)cc3-n3cccc32)ccc1F (centres unmarked) [Compound 13, 1-[5-(7,9-dichloro-5,6-dihydro-4H-pyrrolo[1,2-a][1,4]benzodiazepin-4-yl)-2-fluorophenyl]-ethanone] |  |  |  |  | > 63.1 µM | > 63.1 µM | 7.94 µM | > 63.1 µM | > 63.1 µM | > 63.1 µM | 2 µM |  |  |  |  |  |  |  | hCYP1A2_CEC_Pct_Inh (CYP1A2; human, 10 μM, pH 7.4): 64%; hCYP2C9_MFC_Pct_Inh (CYP2C9; human, 10 μM, pH 7.4): 61%; hCYP2D6_AMMC_Pct_Inh (CYP2D6; human, 10 μM, pH 7.4): 51%; hCYP3A4_BFC_Pct_Inh (CYP3A4; human, 10 μM, pH 7.4): 81%; hCYP3A4_BQ_Pct_Inh (CYP3A4; human, 10 μM, pH 7.4): 78%; hCYP3A4_DBF_Pct_Inh (CYP3A4; human, 10 μM, pH 7.4): 91%; %-compound metabolised_Met_hLM ([5]; human, microsomes, 0.25 h, 5 μM, pH 7.4): 69%; %-compound metabolised Met_gpLM ([6]; guinea pig, microsomes, 0.25 h, 5 μM, pH 7.4): 95%
CC(=O)c1cc(C2=NCc3c(Cl)cc(Cl)cc3-n3cccc32)ccc1F [Compound 23, 1-[5-(7,9-dichloro-6H-pyrrolo[1,2-a][1,4]benzodiazepin-4-yl)-2-fluorophenyl]-ethanone] |  |  |  |  | > 63.1 µM | > 63.1 µM | > 63.1 µM | > 63.1 µM | > 63.1 µM | > 63.1 µM | > 63.1 µM | 17% | 51% | 3% | 51% | 56% | 40% | 22% | melting point: 192.3 to 193.4 °C; %-compound metabolised Met_gpLM ([6]; guinea pig microsomes, 1 mg protein/ml, 5 μM test compound, 15 min, 37 °C): 39%
CC(=O)c1ccc(C2=NCc3c(Cl)ccc(Cl)c3-n3cccc32)cc1 [Compound 25, 1-[4-(7,10-dichloro-6H-pyrrolo[1,2-a][1,4]benzodiazepin-4-yl)phenyl]-ethanone] |  |  |  |  | > 63.1 µM | 10 µM | 3.16 µM | > 63.1 µM | > 63.1 µM | > 63.1 µM | 5.01 µM | 21% | 45% | 11% | 21% | 29% | 21% | 80% | 
CC(=O)c1ccc(C2NCc3c(Cl)cccc3-n3cccc32)cc1 (centres unmarked) [drawing 94] | 3.16 µM | 3.16 µM | 3.16 µM | > 10 µM |  |  |  |  |  |  |  |  |  |  |  |  |  |  | 
